Reference: patent US11485728B2, “Small molecules for the treatment of autoimmune diseases and cancer” (Athos Therapeutics, Inc., priority 2020, dated 2022)
Read-outs that look alike come from different tables or passages of the source.

Assays:
[1] = target: T1, CYP1A2 (Homo sapiens, UniProt P05177); experiment: CYP-direct inhibition, CYP1A2; assay type: in vitro ADME
T1 construct: from tissue; host or cells: pooled human liver microsomes
T1 sequence (P05177 1-516): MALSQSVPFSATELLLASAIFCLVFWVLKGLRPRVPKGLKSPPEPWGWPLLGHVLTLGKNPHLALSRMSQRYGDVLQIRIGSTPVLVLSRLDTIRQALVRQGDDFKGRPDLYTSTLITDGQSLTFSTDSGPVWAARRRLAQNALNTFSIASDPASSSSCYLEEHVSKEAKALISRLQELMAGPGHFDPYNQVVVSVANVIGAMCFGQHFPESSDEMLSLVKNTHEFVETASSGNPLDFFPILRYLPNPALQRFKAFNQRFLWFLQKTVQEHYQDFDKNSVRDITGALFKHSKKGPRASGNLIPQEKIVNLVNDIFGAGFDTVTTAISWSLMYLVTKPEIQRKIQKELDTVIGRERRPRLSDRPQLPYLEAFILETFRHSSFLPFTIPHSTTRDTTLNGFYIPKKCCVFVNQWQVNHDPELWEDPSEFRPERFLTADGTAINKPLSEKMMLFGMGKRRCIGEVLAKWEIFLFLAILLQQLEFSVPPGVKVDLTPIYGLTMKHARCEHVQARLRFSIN
Experimental: Many drugs inhibit cytochrome P450 enzymes to cause clinically significant changes in the pharmacokinetics of other drugs. In vitro cytochrome P450 inhibition, can provide crucial information in evaluating potential clinical drug-drug interactions and is useful for focusing in vivo tests to areas of concern. The cytochrome P450 inhibition assay was developed by preparing a working cocktail solution consisting of six probe substrates 10 μM ethoxy-resorufin (CYP1A2), 100 μM rosiglitazone (CYP2C8), 50 μM diclofenac (CYP2C9), 300 μM S-mephenytoin (CYP2C19), 50 μM dextromethorphan (CYP2D6), and 20 μM midazolam (CYP3A4). A mixture solution consists of 140 uL of 0.286 mg/mL of pooled human liver microsome working solution and 20 uL working solutions of test articles, standard control inhibitors, or positive control placebo and 20 uL of substrate cocktail mixture working solution was prepared. The mixture solution was pre-warm in a gentle shaking bath at 37±2° C. for 5 minutes. The enzymatic reaction started by adding 20 uL of NRS working solution to the mixture solution and incubated for 10 minutes at 37±2° C. To stop the reaction, an addition of 400 μL cold stop solution (acetonitrile containing 50 ng/mL Tolbutamide as an internal standard (I.Std.) was added to the mixture solution. The final concentration of test article, inhibitors, substrates, and cofactors are noted in Table 0.1 below. Two individual samples were prepared for each test compound. The extracted samples were vortexed and then centrifuged at 4500 rpm for 7 minutes using Eppendorf Centrifuge 5910R. 200 uL of supernatant was diluting with 200 uL of 50% Methanol into 96-DW plate for LC/MS/MS analysis
Concentration-response plots are used to determine the effects of an inhibitor on an enzymatic reaction. A typical concentration-response plot provides fractional activity (Y axis) is plotted as a function of log inhibitor concentration (X axis). The data are fitted using a standard Sigmoidal dose-response equation which is also called a […] logistic equation. The concentration of compound that results in 50% inhibition of maximal activity is termed as the IC50 (inhibitor concentration yielding 50% inhibition). IC50 value is calculated using Prism GraphPad software, version 9. […].
Cytochrome P450 inhibition of a drug is a key factor in determining pharmacokinetic drug-drug interactions. The objective of this study was to evaluate the inhibition potential of G9a inhibitors on six (6) major human cytochrome P450 enzymes, including CYP1A2, CYP2C8, CYP2C9, CYP2C19, CYP2D6, and CYP3A4. Inhibition was determined by using a substrate cocktail and analyzing the rate of specific metabolites formation. The cytochrome P450 inhibition assay was developed using a cocktail consisting of six (6) probe substrates ethoxy-resorufin (CYP1A2), rosiglitazone (CYP2C8), diclofenac (CYP2C9), S-mephenytoin (CYP2C19), dextromethorphan (CYP2D6), and midazolam (CYP3A4). The cocktail was incubated in human liver microsome with NADPH regenerating system (NRS) in a shaking bath at 37±2° C. The formation of specific metabolites was monitored by LC/MS/MS. Test compound was added to the cocktail-liver microsome mixture at varying concentrations and its effect on cytochrome P450 activity was determined by analyzing the rate of specific metabolite formation. The percent inhibition was calculated and plotted with reference to the concentration, and the IC50 value for inhibition was derived by fitting the data with a using log(inhibitor) vs. normalized response with variable slope least squares fit by Graphpad Prism® software. […].

[2] = system: HT-29 colorectal cancer cells; experiment: HT-29 cell viability (Real-Time-Glo); assay type: cell-based; settings: for IC50: Homo sapiens, HT-29, 72 hr, read-out: IC50, Cell line: HT-29; for growth of HT-29 colorectal cancer cells: luminescence at 72 h
Experimental: Equal volume of 2× RealTime-Glo™ reagent (2 μl of MT Cell Viability Substrate 1,000×, and 2 μl of NanoLuc® Enzyme 1,000×, per 1 ml of media, Promega) was added to each well and cells were incubated at 37° C. Luminescence was evaluated at 72 h.
(§1) To determine the plating density for cell viability assays, for each cell line, cells were counted and diluted to final densities of 2.5, 5, 10 and 20 thousand per 100 μl of their respective growth media per well in 96 well plates. A Promega Real-Time-Glo cell viability kit was used to determine the optimal concentration for cell plating so that each cell line would be within the linear part of its growth curve after 72 hrs in culture. […] Test compounds were then added at different concentrations for the creation of six-point curve and cell density was determined using the Promega Real-Time-Glo cell viability kit after 24, 48, and 72 hrs in culture.
Specifically, the Promega Real-Time-Glo cell viability kit was used to determine the optimal concentration for cell plating so that each cell line would be within the linear part of its growth curve after 72 hrs in culture. […] Test compounds are then added at different concentrations for the creation of six-point curve and cell density is determined using the Promega Real-Time-Glo cell viability kit after 24, 48, and 72 hrs in culture. […]

[3] = system: HCT-116; experiment: HCT-116 cell viability (Real-Time-Glo); assay type: cell-based; settings: Homo sapiens, 72 hr, read-out: IC50, Cell line: HCT-116
Experimental: as §1

[4] = human liver microsome, substrate ethoxy-resorufin, read-out: IC50 CYP-1A2

| Structure (SMILES) | IC50 [1, 4] | IC50 [2] | growth of HT-29 colorectal cancer cells [2] | IC50 [3] | IC50 [1] |
| --- | --- | --- | --- | --- | --- |
| COc1cc2c(NC3CCOCC3)nc(N3CCC(F)(F)CC3)nc2cc1OCCCN1CCCC1 [Compound 2, 2-(4,4-difluoropiperidin-1-yl)-6-methoxy-7-(3-(pyrrolidin-1-yl)propoxy)-N-(tetrahydro-2H-pyran-4-yl)quinazolin-4-amine] | > 100 µM | 1 to 5 µM | potent anti-cancer activity |  |  |
| COCCN1CCC(Nc2nc(N3CCC(F)(F)CC3)nc3cc(OCCCN4CCCC4)c(OC)cc23)CC1 [Compound 3, 2-(4,4-difluoropiperidin-1-yl)-6-methoxy-N-(1-(2-methoxyethyl)piperidin-4-yl)-7-(3-(pyrrolidin-1-yl)propoxy)quinazolin-4-amine] | > 100 µM |  | potent anti-cancer activity | 1 to 5 µM |  |
| COCCNc1nc(N2CCC(F)(F)CC2)nc2cc(OCCCN3CCCC3)c(OC)cc12 [Compound 4, 2-(4,4-difluoropiperidin-1-yl)-6-methoxy-N-(2-methoxyethyl)-7-(3-(pyrrolidin-1-yl)propoxy)quinazolin-4-amine] | > 100 µM | 1 to 5 µM | potent anti-cancer activity | 1 to 5 µM |  |
| COc1cc2c(Nc3ccncc3)nc(N3CCC(F)(F)CC3)nc2cc1OCCCN1CCCC1 [Compound 7, 2-(4,4-difluoropiperidin-1-yl)-6-methoxy-N-(pyridin-4-yl)-7-(3-(pyrrolidin-1-yl)propoxy)quinazolin-4-amine] | > 100 µM | 1 to 5 µM |  | 1 to 5 µM |  |
| COc1cc2c(NC3CCN(C(C)C)CC3)nc(-n3ccnc3)nc2cc1OCCCN1CCCC1 [Compound 156, 2-(1H-imidazol-1-yl)-N-(1-isopropylpiperidin-4-yl)-6-methoxy-7-(3-(pyrrolidin-1-yl)propoxy)quinazolin-4-amine] | > 100 µM | 1 to 5 µM |  | 1 to 5 µM |  |
| COc1cc2c(NC3CCOCC3)nc(N3CCCC3)nc2cc1OCCCN1CCCC1 [Compound 164, 6-methoxy-2-(pyrrolidin-1-yl)-7-(3-(pyrrolidin-1-yl)propoxy)-N-(tetrahydro-2H-pyran-4-yl)quinazolin-4-amine] | > 100 µM |  |  | 1 to 5 µM |  |
| COc1cc2c(NC3CCOCC3)nc(N3CCC3)nc2cc1OCCCN1CCCC1 [Compound 174, 2-(azetidin-1-yl)-6-methoxy-7-(3-(pyrrolidin-1-yl)propoxy)-N-(tetrahydro-2H-pyran-4-yl)quinazolin-4-amine] | 63.1 µM |  |  | 1 to 5 µM |  |
| COc1cc2c(NC3CCN(C(C)C)CC3)nc(N3CCC3)nc2cc1OCCCN1CCCC1 [Compound 234, 2-(azetidin-1-yl)-N-(1-isopropylpiperidin-4-yl)-6-methoxy-7-(3-(pyrrolidin-1-yl)propoxy)quinazolin-4-amine] | > 100 µM |  |  | 1 to 5 µM |  |
| COc1cc2c(NC3CCN(C(C)C)CC3)nc(C#N)nc2cc1OCCCN1CCCC1 [Compound 235, 4-((1-isopropylpiperidin-4-yl)amino)-6-methoxy-7-(3-(pyrrolidin-1-yl)propoxy)quinazoline-2-carbonitrile] | > 100 µM |  |  | 1 to 5 µM |  |
| COc1cc2c(NC3CCN(C(C)C)CC3)nc(N3CCC(F)(F)CC3)nc2cc1OCCCN1CCCC1 [Compound 400, 2-(4,4-difluoropiperidin-1-yl)-N-(1-isopropylpiperidin-4-yl)-6-methoxy-7-(3-(pyrrolidin-1-yl)propoxy)quinazolin-4-amine, reference compound] |  | 5 to 10 µM |  |  | > 100 µM |
